Patent US6630473B1, “Anti-inflammatory agents and inhibitors against increase in ocular tension caused by irradiation with lasers, containing 1,4-dihydropyridine derivatives” (Senju Pharmaceutical Co., Ltd., priority 1999, dated 2003)
Where “and” joins values, the source holds several entries; their conditions need not be identical. Equal values may be shown once. Where a name gives a salt, the structure may show the parent alone.

How the values were obtained:
[1] = system: intraocular inflammation induced by photocoagulation of iris due to argon laser irradiation; test: Anterior chamber protein concentration (laser flare cell meter) after argon laser irradiation of iris; type: in vivo, Male Dutch colored house rabbits; details: for protein concentration after laser irradiation, Treated eye / protein concentration after laser irradiation, Non-treated eye: mean ± SE (n = 4); for protein concentration after laser irradiation: intravenous 500 μg/500 μl/kg at 30 minutes and immediately before laser irradiation, mean ± standard error (n = 4)
Text: (§1) The effect of the inventive compound on intraocular inflammation and rise of intraocular pressure induced by photocoagulation of iris due to argon laser irradiation was examined. As regards intraocular inflammation, the anterior chamber protein concentration (photon/msec) was used as an index. Male Dutch colored house rabbits weighing about 2 kg purchased from Fukusaki Rabbit Breeding Cooperative were used for the test, after confirmation of absence of abnormality. The rabbits were raised at temperature of 23±3° C., humidity of 55±10% on a solid feed (the NOSAN GROUP: Labo R Stock, NIHON NOSAN) 100 g a day, allowing free access to tap water. […] The argon laser was irradiated in the middle of both eyes between limbus and the base of iris at 5 sites at the same intervals, under the conditions of size: 200 μm, irradiation time (duration): 0.5 sec, output (power): 0.35 W. To remove the effect of fibrin that occurs after laser irradiation, heparin (1000 U/kg) was intravenously administered. The increase in the anterior chamber protein concentration caused by ophthalmic inflammation was measured with a laser flare cell meter (Kowa Co., Ltd.) immediately before, 30 minutes after and 1 hour after laser irradiation. Nicardipine hydrochloride was intravenously administered at 30 minutes and immediately before laser irradiation by 500 μg/500 μl/kg. Heparin was administered 5 minutes after the first administration of nicardipine hydrochloride. Heparin was administered to the control group at 30 minutes before laser irradiation. Into one eye of the house rabbits was instilled 0.05% and 0.1% iganidipine hydrochloride and 0.1% nicardipine hydrochloride, and into each opposite eye was instilled physiological saline by 10 μl at 30 minutes before laser irradiation. The eye instilled with the test material was taken as the treated eye, and the opposite eye instilled with physiological saline was taken as the non-treated eye. In view of the influence of the test material on the opposite eye, the control eyes were prepared, wherein physiological saline was instilled into one eye, and the other eye was not treated, respectively taken as the control of the treated eye and the control of the non-treated eye. Heparin was intravenously administered immediately after instillation of the test material and physiological saline.

[2] = system: rise of intraocular pressure induced by photocoagulation of iris due to argon laser irradiation; test: Intraocular pressure (pneumatonograph) after argon laser irradiation of iris; type: in vivo, Male Dutch colored house rabbits
Text: as §1, with “intraocular pressure of” for “increase in”, “both eyes” for “anterior chamber protein concentration caused by ophthalmic inflammation”, “measured” for “measured with a laser flare cell meter (Kowa Co., Ltd.)”, “before” for “before, 30 minutes after”, “0.25, 0.5, 1, 2, 3 and 4 hours” for “1 hour”

[3] = system: prostaglandin E2 (PGE2) induced inflammatory responses in the anterior uveal tissues and rise of intraocular pressure; details: systemic administration before administration of PGE2; cited from earlier work
[4] = system: experimental endophthalmitis induced by photocoagulation of iris by the argon laser; details: literature report; nicardipine by intravenous administration; cited from earlier work

With C=CCN1CCN(CC(C)(C)COC(=O)C2=C(C)NC(C)=C(C(=O)OC)C2c2cccc([N+](=O)[O-])c2)CC1.Cl.Cl (stereo not drawn) [iganidipine hydrochloride, 3-(4-allyl-1-piperazinyl)-2,2-dimethylpropyl methyl 2,6-dimethyl-4-(m-nitrophenyl)-1,4-dihydropyridine-3,5-dicarboxylate dihydrochloride] the “protein concentration after laser irradiation, Treated eye” value ([1]; instillation of 0.05% iganidipine hydrochloride 10 μl 30 minutes before laser, time 0 min) was 20.55 ± 5.02 /msec, the “protein concentration after laser irradiation, Treated eye” value ([1]; instillation of 0.05% iganidipine hydrochloride 10 μl 30 minutes before laser, time 30 min, dihydrochloride) was 73.8 /msec and 73.75 ± 8.67 /msec and the “protein concentration after laser irradiation, Treated eye” value ([1]; instillation of 0.05% iganidipine hydrochloride 10 μl 30 minutes before laser, time 60 min) was 284.10 ± 17.03 /msec. The “protein concentration after laser irradiation, Treated eye” value ([1]; instillation of 0.1% iganidipine hydrochloride 10 μl 30 minutes before laser, time 0 min) was 19.18 ± 2.37 /msec, the “protein concentration after laser irradiation, Treated eye” value ([1]; instillation of 0.1% iganidipine hydrochloride 10 μl 30 minutes before laser, time 30 min, dihydrochloride) was 84.7 /msec and 84.70 ± 29.66 /msec and the “protein concentration after laser irradiation, Treated eye” value ([1]; instillation of 0.1% iganidipine hydrochloride 10 μl 30 minutes before laser, time 60 min) was 227.18 ± 10.03 /msec. For the same molecule, the “protein concentration after laser irradiation, Non-treated eye” value (“protein concentration … Non-treated eye” for short) ([1]; opposite eye (physiological saline) from eye instilled with 0.05% iganidipine hydrochloride, time 0 min) was 11.73 ± 2.97 /msec, the “protein concentration … Non-treated eye” value ([1]; opposite eye (physiological saline) from eye instilled with 0.05% iganidipine hydrochloride, time 30 min) was 68.53 ± 14.40 /msec and the “protein concentration … Non-treated eye” value ([1]; opposite eye (physiological saline) from eye instilled with 0.05% iganidipine hydrochloride, time 60 min) was 313.13 ± 27.06 /msec. For the same molecule, the “protein concentration … Non-treated eye” value ([1]; opposite eye (physiological saline) from eye instilled with 0.1% iganidipine hydrochloride, time 0 min) was 16.03 ± 2.97 /msec, the “protein concentration … Non-treated eye” value ([1]; opposite eye (physiological saline) from eye instilled with 0.1% iganidipine hydrochloride, time 30 min) was 117.33 ± 31.50 /msec and the “protein concentration … Non-treated eye” value ([1]; opposite eye (physiological saline) from eye instilled with 0.1% iganidipine hydrochloride, time 60 min) was 244.45 ± 39.46 /msec. The “time to restore to the original intraocular pressure” value ([2]; eye instilled with 0.05%) was 90 min, the “rise of intraocular pressure from the initial value” ([2]; eye instilled with 0.05%, 30 minutes from laser irradiation (FIG. 3)) was 6 mmHg and the “time to restore to the original intraocular pressure” value ([2]; eye instilled with 0.1%) was 120 min. The “rise of intraocular pressure from the initial value” ([2]; eye instilled with 0.1%, 30 minutes from laser irradiation (FIG. 2)) was 7.5 mmHg and the “intraocular pressure of opposite (non-treated) eye compared with control group” value ([2]; eye instilled with physiological saline opposite to the test-material eye, 3 hours after irradiation) was “more significant decrease”.
For COC(=O)C1=C(C)NC(C)=C(C(=O)OCCN(C)Cc2ccccc2)C1c1cccc([N+](=O)[O-])c1 (stereo not drawn) [nicardipine hydrochloride], the “anterior chamber protein concentration compared with control group” value ([1]; eye instilled with 0.1%, 30 minutes after laser irradiation) was “without difference from the control group”, the “protein concentration after laser irradiation, Treated eye” value ([1]; instillation of 0.1% nicardipine hydrochloride 10 μl 30 minutes before laser, time 0 min) was 20.55 ± 5.02 /msec and the “protein concentration after laser irradiation, Treated eye” value ([1]; instillation of 0.1% nicardipine hydrochloride 10 μl 30 minutes before laser, time 30 min, hydrochloride) was 184.1 /msec and 184.05 ± 35.1 /msec. The “protein concentration after laser irradiation, Treated eye” value ([1]; instillation of 0.1% nicardipine hydrochloride 10 μl 30 minutes before laser, time 60 min) was 337.23 ± 46.4 /msec, the “protein concentration after laser irradiation” value ([1]; time 0 min) was 15.53 ± 0.14 /msec and the “protein concentration after laser irradiation” value ([1]; time 30 min, hydrochloride) was 58.1 /msec and 58.08 ± 18.14 /msec. For the same molecule, the “protein concentration after laser irradiation” value ([1]; time 60 min) was 30.85 ± 2.58 /msec, the “protein concentration … Non-treated eye” value ([1]; opposite eye (physiological saline) from eye instilled with 0.1% nicardipine hydrochloride, time 0 min) was 11.73 ± 2.97 /msec and the “protein concentration … Non-treated eye” value ([1]; opposite eye (physiological saline) from eye instilled with 0.1% nicardipine hydrochloride, time 30 min) was 118.93 ± 21.21 /msec. For the same molecule, the “protein concentration … Non-treated eye” value ([1]; opposite eye (physiological saline) from eye instilled with 0.1% nicardipine hydrochloride, time 60 min) was 349.85 ± 23.02 /msec, the “effect on the rise of intraocular pressure after laser irradiation” value ([2]; eye instilled with 0.1% (FIG. 4)) was “significant inhibition of the rise of intraocular pressure” and the intraocular pressure ([2]; intravenous administration group, 30 minutes after the irradiation (FIG. 1)) was 24.2 mmHg. For the same molecule, the intraocular pressure ([2]; intravenous administration group, 1 hour after the irradiation (FIG. 1)) was 20.8 mmHg, the “time until which the intraocular pressure effect was sustained” value ([2]; intravenous administration group, after the irradiation) was 4 h and the “decrease of intraocular pressure” value ([2]; intravenous administration group, at 1 hour after the irradiation versus immediately before laser irradiation) was 9.3 mmHg. The intraocular pressure ([2]; intravenous administration group, immediately before laser irradiation (FIG. 1)) was 30.1 mmHg, the “effect on PGE2-induced inflammatory responses and temporary rise of intraocular pressure” value [3] was “inhibits these responses in a dose-dependent manner” and the “effect on experimental endophthalmitis induced by argon laser photocoagulation of iris” value [4] was “inhibited experimental endophthalmitis”.
For COC(=O)C1=C(C#N)NC(C)=C(C(=O)OC(C)C)C1c1cccc([N+](=O)[O-])c1 (stereo not drawn) [nilvadipine], the “effect on PGE2-induced inflammatory responses and temporary rise of intraocular pressure” value [3] is given as “inhibits these responses in a dose-dependent manner”.
